# Assays:
# Format in all cases: functional
# [1] = tested on: Staphylococcus aureus; experiment: Antimicrobial activity against methicillin-resistant, vancomycin-hetroresistant Staphylococcus aureus 618 by microdilution method
# [2] = tested on: Streptococcus pneumoniae; experiment: Antimicrobial activity against Penicillin-susceptible Streptococcus pneumoniae s502 by microdilution method
# [3] = tested on: Staphylococcus aureus; experiment: Antimicrobial activity against methicillin-susceptible, vancomycin-susceptible Staphylococcus aureus ATCC 29213 assessed as time required to induce sub-MIC effect at 0.3 times MIC after 1 hr by plate counting method; details: ATCC 29213, 1 h
# [4] = tested on: Staphylococcus aureus; experiment: Antimicrobial activity against methicillin-resistant, vancomycin-susceptible Staphylococcus aureus vs1 assessed as time required to induce post antibiotic sub-MIC effect at 0.2 times MIC after 1 hr by plate counting method; details: vs1, 1 h
# [5] = tested on: Enterococcus faecalis; experiment: Antimicrobial activity against vancomycin-sensitive Enterococcus faecalis 10 assessed as time required to induce sub-MIC effect at 0.3 times MIC after 1 hr by plate counting method; details: Enterococcus faecalis, 10, 1 h
# [6] = tested on: Enterococcus faecalis; experiment: Antimicrobial activity against vancomycin-resistant Enterococcus faecalis 609 assessed as time required to induce post antibiotic sub-MIC effect at 0.4 times MIC after 1 hr by plate counting method; details: Enterococcus faecalis, 609, 1 h
# [7] = tested on: Staphylococcus aureus; experiment: Antimicrobial activity against methicillin-susceptible, vancomycin-susceptible Staphylococcus aureus ATCC 29213 assessed as time required to induce post antibiotic sub-MIC effect at 0.2 times MIC after 1 hr by plate counting method; details: ATCC 29213, 1 h
# [8] = tested on: Enterococcus faecalis; experiment: Antimicrobial activity against vancomycin-resistant Enterococcus faecalis 609 assessed as time required to induce post antibiotic sub-MIC effect at 0.2 times MIC after 1 hr by plate counting method; details: Enterococcus faecalis, 609, 1 h
# [9] = tested on: Staphylococcus aureus; experiment: Antimicrobial activity against methicillin-resistant, vancomycin-intermediate Staphylococcus aureus 510 assessed as post antibiotic effect at 10 times MIC after 1 hr by plate counting method; details: Staphylococcus aureus, 510, 1 h
# [10] = tested on: Staphylococcus aureus; experiment: Antimicrobial activity against methicillin-susceptible, vancomycin-susceptible Staphylococcus aureus ATCC 29213 assessed as time required to induce post antibiotic sub-MIC effect at 0.4 times MIC after 1 hr by plate counting method; details: ATCC 29213, 1 h
# [11] = tested on: Staphylococcus aureus; experiment: Antimicrobial activity against methicillin-resistant, vancomycin-susceptible Staphylococcus aureus vs1 assessed as time required to induce post antibiotic sub-MIC effect at 0.4 times MIC after 1 hr by plate counting method; details: vs1, 1 h
# [12] = tested on: Streptococcus pneumoniae; experiment: Antimicrobial activity against Penicillin-susceptible Streptococcus pneumoniae ATCC 49617 assessed as time required to induce sub-MIC effect at 0.2 times MIC after 1 hr by plate counting method; details: ATCC 49617, 1 h
# [13] = tested on: Enterococcus faecalis; experiment: Antimicrobial activity against vancomycin-sensitive Enterococcus faecalis 10 by microdilution method
# [14] = tested on: Enterococcus faecalis; experiment: Antimicrobial activity against vancomycin-sensitive Enterococcus faecalis 10 assessed as time required to induce post antibiotic sub-MIC effect at 0.4 times MIC after 1 hr by plate counting method; details: Enterococcus faecalis, 10, 1 h
# [15] = tested on: Enterococcus faecalis; experiment: Antimicrobial activity against vancomycin-sensitive Enterococcus faecalis 20 assessed as time required to induce sub-MIC effect at 0.2 times MIC after 1 hr by plate counting method; details: Enterococcus faecalis, 20, 1 h
# [16] = tested on: Enterococcus faecalis; experiment: Antimicrobial activity against vancomycin-sensitive Enterococcus faecalis 20 assessed as time required to induce post antibiotic sub-MIC effect at 0.3 times MIC after 1 hr by plate counting method; details: Enterococcus faecalis, 20, 1 h
# [17] = tested on: Enterococcus faecalis; experiment: Antimicrobial activity against vancomycin-resistant Enterococcus faecalis 609 by microdilution method
# [18] = tested on: Streptococcus pneumoniae; experiment: Antimicrobial activity against Penicillin-intermediate Streptococcus pneumoniae s1234 assessed as time required to induce sub-MIC effect at 0.2 times MIC after 1 hr by plate counting method
# [19] = tested on: Staphylococcus aureus; experiment: Antimicrobial activity against methicillin-susceptible, vancomycin-susceptible Staphylococcus aureus sox1 assessed as post antibiotic effect at 10 times MIC after 1 hr by plate counting method; details: sox1, 1 h
# [20] = tested on: Enterococcus faecalis; experiment: Antimicrobial activity against vancomycin-resistant Enterococcus faecalis 609 assessed as time required to induce sub-MIC effect at 0.3 times MIC after 1 hr by plate counting method; details: Enterococcus faecalis, 609, 1 h
# [21] = tested on: Streptococcus pneumoniae; experiment: Antimicrobial activity against Penicillin-susceptible Streptococcus pneumoniae ATCC 49617 assessed as time required to induce post antibiotic sub-MIC effect at 0.4 times MIC after 1 hr by plate counting method; details: ATCC 49617, 1 h
# [22] = tested on: Staphylococcus aureus; experiment: Antimicrobial activity against methicillin-susceptible, vancomycin-susceptible Staphylococcus aureus sox1 assessed as time required to induce sub-MIC effect at 0.2 times MIC after 1 hr by plate counting method; details: sox1, 1 h
# [23] = tested on: Enterococcus faecalis; experiment: Antimicrobial activity against vancomycin-sensitive Enterococcus faecalis 20 assessed as time required to induce post antibiotic sub-MIC effect at 0.2 times MIC after 1 hr by plate counting method; details: Enterococcus faecalis, 20, 1 h
# [24] = tested on: Staphylococcus aureus; experiment: Antimicrobial activity against methicillin-susceptible, vancomycin-susceptible Staphylococcus aureus ATCC 29213 assessed as time required to induce sub-MIC effect at 0.2 times MIC after 1 hr by plate counting method; details: ATCC 29213, 1 h
# [25] = tested on: Enterococcus faecalis; experiment: Antimicrobial activity against vancomycin-sensitive Enterococcus faecalis ATCC 29212 assessed as time required to induce sub-MIC effect at 0.3 times MIC after 1 hr by plate counting method; details: ATCC 29212, 1 h
# [26] = tested on: Streptococcus pneumoniae; experiment: Antimicrobial activity against Penicillin-intermediate Streptococcus pneumoniae s1234 assessed as time required to induce sub-MIC effect at 0.4 times MIC after 1 hr by plate counting method; details: s1234, 1 h
# [27] = tested on: Enterococcus faecalis; experiment: Antimicrobial activity against vancomycin-resistant Enterococcus faecalis 266 assessed as post antibiotic effect at 10 times MIC after 1 hr by plate counting method; details: Enterococcus faecalis, 266, 1 h
# [28] = tested on: Staphylococcus aureus; experiment: Antimicrobial activity against methicillin-susceptible, vancomycin-susceptible Staphylococcus aureus sox1 by microdilution method
# [29] = tested on: Enterococcus faecalis; experiment: Antimicrobial activity against vancomycin-sensitive Enterococcus faecalis ATCC 29212 assessed as time required to induce post antibiotic sub-MIC effect at 0.4 times MIC after 1 hr by plate counting method; details: ATCC 29212, 1 h
# [30] = tested on: Enterococcus faecalis; experiment: Antimicrobial activity against vancomycin-resistant Enterococcus faecalis 266 by microdilution method
# [31] = tested on: Staphylococcus aureus; experiment: Antimicrobial activity against methicillin-susceptible, vancomycin-susceptible Staphylococcus aureus ATCC 29213 assessed as time required to induce sub-MIC effect at 0.4 times MIC after 1 hr by plate counting method; details: ATCC 29213, 1 h
# [32] = tested on: Staphylococcus aureus; experiment: Antimicrobial activity against methicillin-resistant, vancomycin-resistant Staphylococcus aureus 770 assessed as post antibiotic effect at 10 times MIC after 1 hr by plate counting method; details: Staphylococcus aureus, 770, 1 h
# [33] = tested on: Enterococcus faecalis; experiment: Antimicrobial activity against vancomycin-sensitive Enterococcus faecalis 10 assessed as post antibiotic effect at 10 times MIC after 1 hr by plate counting method; details: Enterococcus faecalis, 10, 1 h
# [34] = tested on: Enterococcus faecalis; experiment: Antimicrobial activity against vancomycin-resistant Enterococcus faecalis 266 assessed as time required to induce sub-MIC effect at 0.3 times MIC after 1 hr by plate counting method; details: Enterococcus faecalis, 266, 1 h
# [35] = tested on: Enterococcus faecalis; experiment: Antimicrobial activity against vancomycin-sensitive Enterococcus faecalis 20 assessed as time required to induce sub-MIC effect at 0.3 times MIC after 1 hr by plate counting method; details: Enterococcus faecalis, 20, 1 h
# [36] = tested on: Staphylococcus aureus; experiment: Antimicrobial activity against methicillin-susceptible, vancomycin-susceptible Staphylococcus aureus sox1 assessed as time required to induce sub-MIC effect at 0.4 times MIC after 1 hr by plate counting method; details: sox1, 1 h
# [37] = tested on: Staphylococcus aureus; experiment: Antimicrobial activity against methicillin-resistant, vancomycin-intermediate Staphylococcus aureus 510 by microdilution method
structure (smiles),measurement,setting,value
CCO/N=C(\C(=O)N[C@@H]1C(=O)N2C(C(=O)[O-])=C(Sc3nc(-c4cc[n+](C)cc4)cs3)CS[C@H]12)c1nsc(NP(=O)(O)O)n1 [CEFTAROLINE FOSAMIL],MIC,[1],2 µg/mL
same,MIC,[2],0.008 µg/mL
same,PAE,[3],0.8 h
same,time,[4],2.7 h
same,PAE,[5],1.5 h
same,time,[6],7.9 h
same,PAE,[7],2.5 h
same,time,[8],3 h
same,PAE,[9],1.4 h
same,PAE,[10],> 10.5 h
same,time,[11],6.7 h
same,PAE,[12],0.2 h
same,MIC,[13],0.5 µg/mL
same,PAE,[14],8.5 h
same,time,[15],0.9 h
same,PAE,[16],8.6 h
same,MIC,[17],1 µg/mL
same,PAE,[18],0 h
same,PAE,[19],0.8 h
same,time,[20],1.4 h
same,PAE,[21],7.2 h
same,PAE,[22],0.2 h
same,PAE,[23],4.1 h
same,PAE,[24],0.2 h
same,PAE,[25],3.6 h
same,PAE,[26],0.6 h
same,PAE,[27],0.9 h
same,MIC,[28],0.25 µg/mL
same,PAE,[29],> 10.6 h
same,MIC,[30],2 µg/mL
same,PAE,[31],2.8 h
same,PAE,[32],1.3 h
same,PAE,[33],0.5 h
same,time,[34],1.8 h
same,PAE,[35],1.3 h
same,PAE,[36],1.6 h
same,MIC,[37],0.5 µg/mL

# — ChEMBL document CHEMBL1649287, “Postantibiotic effect of ceftaroline against gram-positive organisms” (2009)
